Tests used:
Format in all cases: functional
Aspergillus niger [1] = assay: Antifungal activity against Aspergillus niger assessed as growth inhibition at 100 ug/mL after 24 hr by cup-plate method; settings: read-out: DIZ
Aspergillus niger [2] = assay: Antifungal activity against Aspergillus niger assessed as growth inhibition at 50 ug/mL after 24 hr by cup-plate method; settings: read-out: DIZ
Candida albicans [3] = assay: Antifungal activity against Candida albicans assessed as growth inhibition at 100 ug/mL after 24 hr by cup-plate method; settings: read-out: DIZ
Candida albicans [4] = assay: Antifungal activity against Candida albicans assessed as growth inhibition at 50 ug/mL after 24 hr by cup-plate method; settings: read-out: DIZ
Pseudomonas aeruginosa [5] = assay: Antibacterial activity against Pseudomonas aeruginosa assessed as growth inhibition at 100 ug/mL after 24 to 48 hr by cup-plate method; settings: read-out: DIZ
Pseudomonas aeruginosa [6] = assay: Antibacterial activity against Pseudomonas aeruginosa assessed as growth inhibition at 50 ug/mL after 24 to 48 hr by cup-plate method; settings: read-out: DIZ
Escherichia coli [7] = assay: Antibacterial activity against Escherichia coli assessed as growth inhibition at 100 ug/mL after 24 to 48 hr by cup-plate method; settings: read-out: DIZ
Bacillus subtilis [8] = assay: Antibacterial activity against Bacillus subtilis assessed as growth inhibition at 100 ug/mL after 24 to 48 hr by cup-plate method; settings: read-out: DIZ
Escherichia coli [9] = assay: Antibacterial activity against Escherichia coli assessed as growth inhibition at 50 ug/mL after 24 to 48 hr by cup-plate method; settings: read-out: DIZ
Bacillus subtilis [10] = assay: Antibacterial activity against Bacillus subtilis assessed as growth inhibition at 50 ug/mL after 24 to 48 hr by cup-plate method; settings: read-out: DIZ
Staphylococcus aureus [11] = assay: Antibacterial activity against Staphylococcus aureus assessed as growth inhibition at 100 ug/mL after 24 to 48 hr by cup-plate method; settings: read-out: DIZ
Staphylococcus aureus [12] = assay: Antibacterial activity against Staphylococcus aureus assessed as growth inhibition at 50 ug/mL after 24 to 48 hr by cup-plate method; settings: read-out: DIZ
Mus musculus [13] = assay: Analgesic activity in Swiss albino Mus musculus (mouse) assessed as latency time of heat-induced paw licking/jumping behaviour at 10 mg/kg after 4 hr by Eddy's hot plate method (reference value: 4.57 +/- 0.11 secs)
Mus musculus [14] = assay: Analgesic activity in Swiss albino Mus musculus (mouse) assessed as latency time of heat-induced paw licking/jumping behaviour at 10 mg/kg after 2 hr by Eddy's hot plate method (reference value: 4.86 +/- 0.18 secs)
Mus musculus [15] = assay: Analgesic activity in Swiss albino Mus musculus (mouse) assessed as latency time of heat-induced paw licking/jumping behaviour at 10 mg/kg after 1 hr by Eddy's hot plate method (reference value: 4.74 +/- 0.21 secs)
Mus musculus [16] = assay: Analgesic activity in Swiss albino Mus musculus (mouse) assessed as latency time of heat-induced paw licking/jumping behaviour at 10 mg/kg after 0.5 hr by Eddy's hot plate method (reference value: 4.17 +/- 0.04 secs)
Rattus norvegicus [17] = assay: Anti-inflammatory activity in Wistar albino Rattus norvegicus (rat) assessed as inhibition of carrageenan-induced paw edema at 10 mg/kg, po administered 30 min prior to carrageenan challenge measured after 3 hr by plethysmometric analysis relative to untreated control
Rattus norvegicus [18] = assay: Anti-inflammatory activity in Wistar albino Rattus norvegicus (rat) assessed as inhibition of carrageenan-induced paw edema at 10 mg/kg, po administered 30 min prior to carrageenan challenge measured after 2 hr by plethysmometric analysis relative to untreated control
Rattus norvegicus [19] = assay: Anti-inflammatory activity in Wistar albino Rattus norvegicus (rat) assessed as inhibition of carrageenan-induced paw edema at 10 mg/kg, po administered 30 min prior to carrageenan challenge measured after 1.5 hr by plethysmometric analysis relative to untreated control
Rattus norvegicus [20] = assay: Anti-inflammatory activity in Wistar albino Rattus norvegicus (rat) assessed as inhibition of carrageenan-induced paw edema at 10 mg/kg, po administered 30 min prior to carrageenan challenge measured after 1 hr by plethysmometric analysis relative to untreated control
Rattus norvegicus [21] = assay: Anti-inflammatory activity in Wistar albino Rattus norvegicus (rat) assessed as inhibition of carrageenan-induced paw edema at 10 mg/kg, po administered 30 min prior to carrageenan challenge measured after 0.5 hr by plethysmometric analysis relative to untreated control

With COc1ccc(F)cc1-c1cccc(-c2nn(CCO)c(=O)o2)c1 the zone of inhibition at 100 µg/mL (Aspergillus niger [1]) was 10 mm, the zone of inhibition at 50 µg/mL (Aspergillus niger [2]) was 9 mm and the zone of inhibition at 100 µg/mL (Candida albicans [3]) was 8 mm. It also gave a zone of inhibition at 50 µg/mL (Candida albicans [4]) of 4 mm, a zone of inhibition at 100 µg/mL (Pseudomonas aeruginosa [5]) of 20 mm and a zone of inhibition at 50 µg/mL (Pseudomonas aeruginosa [6]) of 18 mm. For the same molecule, the zone of inhibition at 100 µg/mL (Escherichia coli [7]) was 19 mm, the zone of inhibition at 100 µg/mL (Bacillus subtilis [8]) was 18 mm and the zone of inhibition at 50 µg/mL (Escherichia coli [9]) was 18 mm. It also gave a zone of inhibition at 50 µg/mL (Bacillus subtilis [10]) of 13 mm, a zone of inhibition at 100 µg/mL (Staphylococcus aureus [11]) of 16 mm and a zone of inhibition at 50 µg/mL (Staphylococcus aureus [12]) of 14 mm. For the same molecule, the Time (Mus musculus [13]) was 5.59 s, the Time (Mus musculus [14]) was 6.88 s and the Time (Mus musculus [15]) was 4.36 s. For the same molecule, the Time (Mus musculus [16]) was 4.96 s, the inhibition in vivo at 10 mg/kg (Rattus norvegicus [17]) was 75% and the inhibition in vivo at 10 mg/kg (Rattus norvegicus [18]) was 69%. It also gave an inhibition in vivo at 10 mg/kg (Rattus norvegicus [19]) of 53%, an inhibition in vivo at 10 mg/kg (Rattus norvegicus [20]) of 41% and an inhibition in vivo at 10 mg/kg (Rattus norvegicus [21]) of 28%.

CN[C@@H]1[C@H](O[C@H]2[C@H](O[C@H]3[C@H](O)[C@@H](O)[C@H](N=C(N)N)[C@@H](O)[C@@H]3N=C(N)N)O[C@@H](C)[C@]2(O)C=O)O[C@@H](CO)[C@H](O)[C@H]1O [STREPTOMYCIN] was tested, and the zone of inhibition at 100 µg/mL (Pseudomonas aeruginosa [5]) was 25 mm, the zone of inhibition at 50 µg/mL (Pseudomonas aeruginosa [6]) was 21 mm and the zone of inhibition at 100 µg/mL (Escherichia coli [7]) was 25 mm. For the same molecule, the zone of inhibition at 50 µg/mL (Escherichia coli [9]) was 21 mm.

For COc1ccc(F)cc1-c1cccc(-c2n[nH]c(=O)o2)c1, the zone of inhibition at 100 µg/mL (Aspergillus niger [1]) was 28 mm, the zone of inhibition at 50 µg/mL (Aspergillus niger [2]) was 15 mm and the zone of inhibition at 100 µg/mL (Candida albicans [3]) was 21 mm. For the same molecule, the zone of inhibition at 50 µg/mL (Candida albicans [4]) was 12 mm, the zone of inhibition at 100 µg/mL (Pseudomonas aeruginosa [5]) was 13 mm and the zone of inhibition at 50 µg/mL (Pseudomonas aeruginosa [6]) was 10 mm. For the same molecule, the zone of inhibition at 100 µg/mL (Escherichia coli [7]) was 14 mm, the zone of inhibition at 100 µg/mL (Bacillus subtilis [8]) was 12 mm and the zone of inhibition at 50 µg/mL (Escherichia coli [9]) was 8 mm. The zone of inhibition at 50 µg/mL (Bacillus subtilis [10]) was 8 mm, the zone of inhibition at 100 µg/mL (Staphylococcus aureus [11]) was 13 mm and the zone of inhibition at 50 µg/mL (Staphylococcus aureus [12]) was 9 mm. It also gave a Time (Mus musculus [13]) of 6.35 s, a Time (Mus musculus [14]) of 7.41 s and a Time (Mus musculus [15]) of 4.74 s. The Time (Mus musculus [16]) was 4.22 s, the inhibition in vivo at 10 mg/kg (Rattus norvegicus [17]) was 71% and the inhibition in vivo at 10 mg/kg (Rattus norvegicus [18]) was 56%. For the same molecule, the inhibition in vivo at 10 mg/kg (Rattus norvegicus [19]) was 49%, the inhibition in vivo at 10 mg/kg (Rattus norvegicus [20]) was 41% and the inhibition in vivo at 10 mg/kg (Rattus norvegicus [21]) was 25%.

COc1ccc(F)cc1-c1cccc(-c2nn(CCOS(=O)(=O)c3ccc(F)c(Cl)c3)c(=O)o2)c1 was tested, and the zone of inhibition at 100 µg/mL (Aspergillus niger [1]) was 11 mm, the zone of inhibition at 50 µg/mL (Aspergillus niger [2]) was 9 mm and the zone of inhibition at 100 µg/mL (Candida albicans [3]) was 7 mm. For the same molecule, the zone of inhibition at 50 µg/mL (Candida albicans [4]) was 8 mm, the zone of inhibition at 100 µg/mL (Pseudomonas aeruginosa [5]) was 18 mm and the zone of inhibition at 50 µg/mL (Pseudomonas aeruginosa [6]) was 17 mm. For the same molecule, the zone of inhibition at 100 µg/mL (Escherichia coli [7]) was 19 mm, the zone of inhibition at 100 µg/mL (Bacillus subtilis [8]) was 22 mm and the zone of inhibition at 50 µg/mL (Escherichia coli [9]) was 13 mm. For the same molecule, the zone of inhibition at 50 µg/mL (Bacillus subtilis [10]) was 20 mm, the zone of inhibition at 100 µg/mL (Staphylococcus aureus [11]) was 20 mm and the zone of inhibition at 50 µg/mL (Staphylococcus aureus [12]) was 13 mm. It also gave a Time (Mus musculus [13]) of 5.47 s, a Time (Mus musculus [14]) of 5.87 s and a Time (Mus musculus [15]) of 4.69 s. The Time (Mus musculus [16]) was 4.62 s, the inhibition in vivo at 10 mg/kg (Rattus norvegicus [17]) was 65% and the inhibition in vivo at 10 mg/kg (Rattus norvegicus [18]) was 62%. For the same molecule, the inhibition in vivo at 10 mg/kg (Rattus norvegicus [19]) was 55%, the inhibition in vivo at 10 mg/kg (Rattus norvegicus [20]) was 42% and the inhibition in vivo at 10 mg/kg (Rattus norvegicus [21]) was 23%.

Molecule COC(=O)CCCn1nc(-c2cccc(-c3cc(F)ccc3OC)c2)oc1=O has a zone of inhibition at 100 µg/mL (Aspergillus niger [1]) of 16 mm, a zone of inhibition at 50 µg/mL (Aspergillus niger [2]) of 11 mm and a zone of inhibition at 100 µg/mL (Candida albicans [3]) of 17 mm. It also gave a zone of inhibition at 50 µg/mL (Candida albicans [4]) of 11 mm, a zone of inhibition at 100 µg/mL (Pseudomonas aeruginosa [5]) of 14 mm and a zone of inhibition at 50 µg/mL (Pseudomonas aeruginosa [6]) of 11 mm. The zone of inhibition at 100 µg/mL (Escherichia coli [7]) was 18 mm, the zone of inhibition at 100 µg/mL (Bacillus subtilis [8]) was 13 mm and the zone of inhibition at 50 µg/mL (Escherichia coli [9]) was 10 mm. It also gave a zone of inhibition at 50 µg/mL (Bacillus subtilis [10]) of 10 mm, a zone of inhibition at 100 µg/mL (Staphylococcus aureus [11]) of 18 mm and a zone of inhibition at 50 µg/mL (Staphylococcus aureus [12]) of 11 mm. For the same molecule, the Time (Mus musculus [13]) was 7.28 s, the Time (Mus musculus [14]) was 7.81 s and the Time (Mus musculus [15]) was 5.84 s. For the same molecule, the Time (Mus musculus [16]) was 5.51 s, the inhibition in vivo at 10 mg/kg (Rattus norvegicus [17]) was 87% and the inhibition in vivo at 10 mg/kg (Rattus norvegicus [18]) was 74%. It also gave an inhibition in vivo at 10 mg/kg (Rattus norvegicus [19]) of 61%, an inhibition in vivo at 10 mg/kg (Rattus norvegicus [20]) of 45% and an inhibition in vivo at 10 mg/kg (Rattus norvegicus [21]) of 31%.

In the case of O=C(O)Cc1ccccc1Nc1c(Cl)cccc1Cl [DICLOFENAC SODIUM], the inhibition in vivo at 10 mg/kg (Rattus norvegicus [17]) is reported as 90%, the inhibition in vivo at 10 mg/kg (Rattus norvegicus [18]) is reported as 77% and the inhibition in vivo at 10 mg/kg (Rattus norvegicus [19]) is reported as 65%. The inhibition in vivo at 10 mg/kg (Rattus norvegicus [20]) was 49% and the inhibition in vivo at 10 mg/kg (Rattus norvegicus [21]) was 35%.

— ChEMBL document CHEMBL3046957, “Synthesis of new oxadiazole derivatives as anti-inflammatory, analgesic, and antimicrobial agents” (2013)
